Results as given in article PMC10657792, “Downstream Allosteric Modulation of NMDA Receptors by 3-Benzazepine Derivatives” (Molecular Neurobiology, 2023).

Experiments:
Format in all cases: cell-based
GluN1a wt/ GluN2B F194A = GluN1a wt/ GluN2B F194A (Rattus norvegicus, UniProt P35439+Q00960, F194A); test: TEVC recording in X. laevis oocytes, GluN2B mutant screening; conditions: fitted curve
Experimental: (§1) Single point mutations were incorporated into template DNA (GluN1-1b wt/ pSGEM and GluN2B wt/ pSGEM) by using the QuikChange II XL site-directed mutagenesis kit (Agilent Technologies, Germany). Mutagenesis primers were designed using the QuikChange Primer Design Program (Agilent) and provided by Microsynth (Microsynth AG, Balgach, Switzerland). For mutation of the desired amino acid in the gene, PCR amplification was performed with the respective mutagenesis primers (Eppendorf MasterCycler Gradient, Eppendorf Hamburg, Germany). Mutations were verified by automated DNA sequencing. Constructs were linearized with PacI (GluN1) or NheI (GluN2B). cRNA was prepared byin vitrotranscription using the mMessage mMachine T7 kit (Life Technologies, Darmstadt, Germany).
(§2) The NMDAR was expressed in stage V and VI oocytes originated from X. laevis. Oocytes were provided by Ecocyte Bioscience (Dortmund, Germany), and equimolar amounts of wild-type and mutated GluN1 and GluN2B cRNA were injected (0.8 ng each). The oocytes were incubated in Barth’s solution, containing (mmol l^−1): 88 NaCl, 1 KCl, 0.4 CaCl2, 0.33 Ca(NO3)2, 0.6 MgSO4, 5 TRIS–HCl, 2.4 NaHCO3, supplemented with 80 mg l^−1 theophylline, 63 mg l^−1 benzylpenicillin, 40 mg l^−1 streptomycin, and 100 mg l^−1 gentamycin and maintained at 18 °C until usage. After injection, the oocytes were incubated for 5 days at 18 °C. Subsequently, the activity of the expressed NMDARs in the oocytes was recorded by two-electrode voltage clamp (TEVC).
(§3) The compounds were retrieved as 10 mM stock solutions in DMSO and were subsequently diluted with agonist solution and adjusted to 0.1% DMSO concentration. Inhibition of each compound was measured via TEVC in X. laevis oocytes at room temperature using a Turbo Tec 10CX amplifier (NPI electronic, Tamm, Germany), NI USB 6221 DA/AD Interface (National Instruments, Austin, USA), and GePulse Software (Dr. Michael Pusch, Genova, Italy). Ba^2+-Ringer, consisting of 10 mM HEPES, 90 mM NaCl, 1 mM KCl, and 1.5 mM BaCl2, adjusted to pH 7.4, was used for TEVC measurements. Agonist solution containing 10 µM glycine and 10 µM (S)-glutamate was prepared in Ba^2+-Ringer, and the measurements were performed at a holding potential of − 70 mV, using electrodes with a glass capillary filled with 3 M KCl and a resistance between 0.5 and 1.5 MΩ. The compounds were tested by applying ascending concentrations, ranging from 1 to 30,000 nM, in at least six oocytes. Example traces for all recorded conditions can be found in Supplementary Figs. S2–S9.
(§4) TEVC data were analyzed using Ana (Dr. Michael Pusch, Genova, Italy), and statistics were performed using OriginPro 2020 (OriginLab Corporation, Northampton, USA). The inhibitory effect of each compound is calculated using the following equation: inhibition=1-Ic-Ih/Ia-Ih where Ih describes the current in the absence of agonists; Ia represents the steady-state current in the presence of the agonists; and Ic is defined as the steady-state after binding of agonist and compound. All dose response curves are fitted to the following logistic equation: y=A1-A2/1+x/x0^p+A2 where A1 describes the minimal inhibition of a compound and was set to 0; A2 represents the maximal inhibition of a compound; p is the slope of the curve; x0 is defined as the concentration at half-maximal inhibition; and x is the tested concentration. Data were statistically analyzed by one-way ANOVA and Tukey post-hoc mean comparison test in OriginPro 2020 (OriginLab Corporation, Northampton, USA). p values are indicated by * for p < 0.05, ** for p < 0.01, and *** for p < 0.001.

GluN1b wt/ GluN2B F176A = GluN1b wt/ GluN2B F176A (Rattus norvegicus, UniProt P35439+Q00960, F176A); test: as above
Experimental: as §1, §2, §3, §4

GluN1b wt/ GluN2B Q110A = GluN1b wt/ GluN2B Q110A (Rattus norvegicus, UniProt P35439+Q00960, Q110A); test: as above
Experimental: as §1, §2, §3, §4

GluN1-1a/GluN2B = target: T1, GluN1-1a/GluN2B (Rattus norvegicus, UniProt P35439+Q00960); test: Single-channel patch clamp recordings (cell-attached) in CHO cells: open time, open channel probability; conditions: 1 µM compound, without exon 5
T1 construct: eGFP; DsRed2 (C); expressed in transfected cells; host or cells: CHO cells (constructs a gift from Prof. Hollmann, Bochum)
Experimental: (§5) Chinese hamster ovary (CHO) cells were co-transfected with GluN1-1a eGFP and GluN2B pDsRed2-N1 or GluN1-1b eGFP and GluN2B pDsRed2-N1. The constructs were a generous gift from Prof. Hollmann (Bochum, Germany). GluN1-1b eGFP was obtained by subcloning of GluN1-1b in eGFP using BssHII and BtrI. Single-channel patch clamp recordings were performed at room temperature using an Axopatch 200B amplifier (Molecular Devices, USA). The patch clamp experiments on cultured CHO cells were done using Clampex 10.7 software (Molecular Devices, USA). Single-channel recordings were performed in the cell-attached configuration. Borosilicate glass pipettes with a resistance of 2–3 MΩ were backfilled with internal solution, consisting of 125 mM NaCl, 3 mM KCl, 1.25 mM NaH2PO4, 0.85 mM CaCl2, and 20 mM HEPES, 100 nM (S)-glutamate, and 20 µM glycine, adjusted to pH 7.4. During the recordings, the cells were continuously flushed with external solution, consisting of 141 mM potassium gluconate, 2.5 mM NaCl, 11 mM EGTA, and 10 mM HEPES, adjusted to pH 7.4 by KOH. The antagonist solution was prepared by adding 1 µM (R)-OF-NB1. All solutions were adjusted to a DMSO concentration of 0.1%. NMDA currents were measured by clamping GluN1-1a/GluN2B or GluN1-1b/GluN2B wild-type expressing CHO cells at − 70 mV. […] Data analysis was performed and evaluated using Clampfit 10.7 (Molecular Devices, USA).

GluN1-1b/GluN2B = target: T2, GluN1-1b/GluN2B (Rattus norvegicus, UniProt P35439+Q00960); test: as above; conditions: 1 µM compound, exon 5 present
T2 construct: eGFP; DsRed2 (C); expressed in transfected cells; host or cells: CHO cells
Experimental: as §5

[1] = agonists 10 µM glycine + 10 µM (S)-glutamate, fitted curve

Chain of GluN1b wt/ GluN2B Q110A (Q00960 27-1482 Q110A, other chains not shown): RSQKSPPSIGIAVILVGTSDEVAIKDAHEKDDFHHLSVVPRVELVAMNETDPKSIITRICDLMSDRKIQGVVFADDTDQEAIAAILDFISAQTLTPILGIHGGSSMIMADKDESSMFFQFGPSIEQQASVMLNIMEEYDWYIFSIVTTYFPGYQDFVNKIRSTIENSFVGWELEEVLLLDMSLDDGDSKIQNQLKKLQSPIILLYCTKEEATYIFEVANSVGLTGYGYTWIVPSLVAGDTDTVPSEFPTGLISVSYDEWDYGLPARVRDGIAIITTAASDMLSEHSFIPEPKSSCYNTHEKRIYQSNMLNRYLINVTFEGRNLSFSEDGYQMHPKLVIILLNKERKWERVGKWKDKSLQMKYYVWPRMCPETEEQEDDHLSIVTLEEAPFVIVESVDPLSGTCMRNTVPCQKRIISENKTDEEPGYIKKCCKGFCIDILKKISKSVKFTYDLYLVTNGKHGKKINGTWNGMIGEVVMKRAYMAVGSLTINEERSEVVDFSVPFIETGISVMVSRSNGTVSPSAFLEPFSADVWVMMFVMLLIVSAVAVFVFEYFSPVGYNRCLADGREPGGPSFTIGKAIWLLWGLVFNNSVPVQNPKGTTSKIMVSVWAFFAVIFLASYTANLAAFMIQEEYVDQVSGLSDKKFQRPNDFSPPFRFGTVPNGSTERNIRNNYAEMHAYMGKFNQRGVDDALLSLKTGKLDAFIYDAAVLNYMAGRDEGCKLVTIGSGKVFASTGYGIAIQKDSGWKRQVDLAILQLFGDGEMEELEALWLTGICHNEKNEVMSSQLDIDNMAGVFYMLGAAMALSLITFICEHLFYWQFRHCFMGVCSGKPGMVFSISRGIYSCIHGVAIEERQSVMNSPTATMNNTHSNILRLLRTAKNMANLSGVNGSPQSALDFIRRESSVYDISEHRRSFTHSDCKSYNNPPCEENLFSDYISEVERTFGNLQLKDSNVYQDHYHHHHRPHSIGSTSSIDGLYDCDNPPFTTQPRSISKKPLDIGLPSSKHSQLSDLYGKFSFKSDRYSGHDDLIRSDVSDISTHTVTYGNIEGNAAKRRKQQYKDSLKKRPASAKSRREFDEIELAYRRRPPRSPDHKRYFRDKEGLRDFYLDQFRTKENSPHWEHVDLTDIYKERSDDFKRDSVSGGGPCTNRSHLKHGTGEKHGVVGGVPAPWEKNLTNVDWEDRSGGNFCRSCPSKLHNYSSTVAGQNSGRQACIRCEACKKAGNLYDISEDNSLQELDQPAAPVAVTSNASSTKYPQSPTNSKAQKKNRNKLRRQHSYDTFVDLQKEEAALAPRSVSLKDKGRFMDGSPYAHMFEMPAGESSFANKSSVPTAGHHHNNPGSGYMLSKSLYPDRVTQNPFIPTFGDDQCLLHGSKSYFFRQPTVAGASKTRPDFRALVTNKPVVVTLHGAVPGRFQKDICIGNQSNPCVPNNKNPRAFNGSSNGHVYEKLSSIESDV
Chain of GluN1b wt/ GluN2B F176A (Q00960 27-1482 F176A, other chains not shown): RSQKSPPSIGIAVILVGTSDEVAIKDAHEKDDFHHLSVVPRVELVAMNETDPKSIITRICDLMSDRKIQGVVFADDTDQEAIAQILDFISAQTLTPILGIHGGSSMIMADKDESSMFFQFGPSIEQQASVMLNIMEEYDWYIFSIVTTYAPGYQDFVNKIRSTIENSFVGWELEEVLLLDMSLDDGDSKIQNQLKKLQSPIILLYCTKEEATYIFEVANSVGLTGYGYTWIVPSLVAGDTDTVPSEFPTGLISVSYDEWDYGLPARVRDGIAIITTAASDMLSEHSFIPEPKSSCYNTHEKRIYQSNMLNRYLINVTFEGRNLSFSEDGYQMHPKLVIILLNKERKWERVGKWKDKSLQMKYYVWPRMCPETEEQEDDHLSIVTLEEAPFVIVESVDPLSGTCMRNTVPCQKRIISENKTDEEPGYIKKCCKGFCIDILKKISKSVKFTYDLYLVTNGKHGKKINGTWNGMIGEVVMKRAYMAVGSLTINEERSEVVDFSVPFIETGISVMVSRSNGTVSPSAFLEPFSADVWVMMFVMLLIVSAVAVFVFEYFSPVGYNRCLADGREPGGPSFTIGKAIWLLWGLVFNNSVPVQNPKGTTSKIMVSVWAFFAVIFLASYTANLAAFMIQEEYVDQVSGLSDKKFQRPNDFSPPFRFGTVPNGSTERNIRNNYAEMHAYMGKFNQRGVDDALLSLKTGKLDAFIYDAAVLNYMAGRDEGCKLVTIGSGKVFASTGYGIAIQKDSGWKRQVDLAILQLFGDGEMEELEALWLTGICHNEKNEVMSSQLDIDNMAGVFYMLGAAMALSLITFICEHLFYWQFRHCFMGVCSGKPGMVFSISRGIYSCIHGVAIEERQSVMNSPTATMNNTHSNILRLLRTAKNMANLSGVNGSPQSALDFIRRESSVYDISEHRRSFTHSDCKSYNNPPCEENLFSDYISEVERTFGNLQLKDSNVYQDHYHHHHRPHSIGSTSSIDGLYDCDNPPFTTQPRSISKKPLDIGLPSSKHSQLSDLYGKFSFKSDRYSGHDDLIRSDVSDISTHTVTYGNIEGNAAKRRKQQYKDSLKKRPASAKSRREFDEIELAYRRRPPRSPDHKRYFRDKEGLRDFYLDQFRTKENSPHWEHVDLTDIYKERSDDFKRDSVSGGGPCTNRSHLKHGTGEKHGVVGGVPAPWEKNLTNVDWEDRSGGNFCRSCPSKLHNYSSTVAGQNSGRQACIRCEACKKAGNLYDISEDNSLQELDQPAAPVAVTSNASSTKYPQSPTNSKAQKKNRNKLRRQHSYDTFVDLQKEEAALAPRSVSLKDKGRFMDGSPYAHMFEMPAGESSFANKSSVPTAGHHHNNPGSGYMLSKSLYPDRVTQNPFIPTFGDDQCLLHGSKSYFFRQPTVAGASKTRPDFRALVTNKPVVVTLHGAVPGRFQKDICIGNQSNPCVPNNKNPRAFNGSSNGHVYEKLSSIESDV
Chain of GluN1a wt/ GluN2B F194A (Q00960 27-1482 F194A, other chains not shown): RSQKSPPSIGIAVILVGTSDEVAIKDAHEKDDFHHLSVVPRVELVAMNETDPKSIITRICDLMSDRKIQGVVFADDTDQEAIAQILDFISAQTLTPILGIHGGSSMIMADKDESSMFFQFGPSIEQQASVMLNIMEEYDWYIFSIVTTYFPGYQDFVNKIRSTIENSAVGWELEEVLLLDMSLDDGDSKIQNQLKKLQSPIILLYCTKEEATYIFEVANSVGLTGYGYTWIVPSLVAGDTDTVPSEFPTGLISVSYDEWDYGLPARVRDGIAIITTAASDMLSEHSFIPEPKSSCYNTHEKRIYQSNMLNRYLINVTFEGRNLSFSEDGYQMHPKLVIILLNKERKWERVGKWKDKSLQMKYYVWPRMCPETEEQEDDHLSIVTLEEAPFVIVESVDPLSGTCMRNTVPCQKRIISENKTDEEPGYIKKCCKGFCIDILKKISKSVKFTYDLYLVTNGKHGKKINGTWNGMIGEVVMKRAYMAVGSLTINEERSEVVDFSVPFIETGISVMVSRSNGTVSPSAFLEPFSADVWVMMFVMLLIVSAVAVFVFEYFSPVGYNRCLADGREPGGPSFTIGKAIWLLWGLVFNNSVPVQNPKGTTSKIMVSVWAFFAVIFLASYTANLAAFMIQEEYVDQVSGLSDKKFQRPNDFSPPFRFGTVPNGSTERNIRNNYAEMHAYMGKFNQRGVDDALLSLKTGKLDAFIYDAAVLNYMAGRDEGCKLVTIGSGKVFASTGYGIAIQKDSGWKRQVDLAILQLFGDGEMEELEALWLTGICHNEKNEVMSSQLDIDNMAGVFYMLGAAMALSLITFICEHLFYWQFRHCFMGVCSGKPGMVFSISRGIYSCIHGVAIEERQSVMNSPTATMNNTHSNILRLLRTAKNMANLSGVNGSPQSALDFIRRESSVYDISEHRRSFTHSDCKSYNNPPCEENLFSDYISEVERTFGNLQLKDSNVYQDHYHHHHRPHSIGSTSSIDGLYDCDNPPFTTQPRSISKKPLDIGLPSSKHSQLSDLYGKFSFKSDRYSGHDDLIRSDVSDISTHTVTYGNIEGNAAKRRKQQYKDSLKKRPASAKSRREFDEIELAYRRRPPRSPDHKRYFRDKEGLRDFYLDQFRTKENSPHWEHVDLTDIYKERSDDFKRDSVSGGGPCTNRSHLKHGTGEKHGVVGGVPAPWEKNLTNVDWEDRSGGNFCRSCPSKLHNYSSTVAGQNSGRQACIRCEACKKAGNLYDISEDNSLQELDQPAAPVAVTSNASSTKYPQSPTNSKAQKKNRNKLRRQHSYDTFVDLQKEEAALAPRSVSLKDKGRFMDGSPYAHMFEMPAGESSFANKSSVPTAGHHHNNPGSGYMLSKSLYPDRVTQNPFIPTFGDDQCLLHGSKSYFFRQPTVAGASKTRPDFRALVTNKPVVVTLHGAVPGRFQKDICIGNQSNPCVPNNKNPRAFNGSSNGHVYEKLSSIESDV

**Q.** For `Oc1ccc2c(c1)CCN(CCCCc1ccccc1F)C[C@@H]2O` [(R)-OF-NB1], which IC50 (GluN1a wt/ GluN2B F194A; agonists 10 µM glycine + 10 µM (S)-glutamate) is on record?
**A.** 16.6 µM

**Q.** And the Hill coefficient (GluN1a wt/ GluN2B F194A)?
**A.** 0.4

**Q.** What about the inhibition at 1 µM (GluN1b wt/ GluN2B F176A; GluN1-1b/F176A, compound concentration 1 μM, single oocytes) of the same molecule?
**A.** 17.7%

**Q.** And the inhibition at 10 µM (GluN1b wt/ GluN2B F176A; GluN1-1b/F176A, compound concentration 10 μM, single oocytes)?
**A.** 29.9%

**Q.** What about the IC50 (GluN1b wt/ GluN2B F176A; [1]) of the same molecule?
**A.** 13.6 µM

**Q.** What about the Hill coefficient (GluN1b wt/ GluN2B F176A; fitted curve) of the same molecule?
**A.** 0.5

**Q.** What about the inhibition at 10 µM (GluN1b wt/ GluN2B Q110A; GluN1-1b/Q110A, compound concentration 10 μM, single oocytes) of the same molecule?
**A.** 78.4%

**Q.** What about the inhibition at 30 µM (GluN1b wt/ GluN2B Q110A; GluN1-1b/Q110A, compound concentration 30 μM, single oocytes) of the same molecule?
**A.** 84.2%

**Q.** What about the IC50 (GluN1b wt/ GluN2B Q110A; [1]) of the same molecule?
**A.** 0.519 µM

**Q.** What about the Hill coefficient (GluN1b wt/ GluN2B Q110A; fitted curve) of the same molecule?
**A.** 1.2

**Q.** And the “effect on open time of NMDAR” value (GluN1-1a/GluN2B)?
**A.** did not result in a significant reduction

**Q.** What about the “effect on open time of NMDAR” value (GluN1-1b/GluN2B) of the same molecule?
**A.** did not result in a significant reduction
